In US4895973A, “Substituted glutaric acid lactones in the treatment of hyperlipidemia” (G. D. Searle & Company, priority 1988, dated 1990):

Molecular target: T1, rat liver microsomal HMGCoA reductase (Rattus norvegicus, UniProt P51639)
T1 construct: rat liver microsomal HMGCoA reductase; from tissue; host or cells: rat liver microsomes
T1 sequence (P51639 1-887): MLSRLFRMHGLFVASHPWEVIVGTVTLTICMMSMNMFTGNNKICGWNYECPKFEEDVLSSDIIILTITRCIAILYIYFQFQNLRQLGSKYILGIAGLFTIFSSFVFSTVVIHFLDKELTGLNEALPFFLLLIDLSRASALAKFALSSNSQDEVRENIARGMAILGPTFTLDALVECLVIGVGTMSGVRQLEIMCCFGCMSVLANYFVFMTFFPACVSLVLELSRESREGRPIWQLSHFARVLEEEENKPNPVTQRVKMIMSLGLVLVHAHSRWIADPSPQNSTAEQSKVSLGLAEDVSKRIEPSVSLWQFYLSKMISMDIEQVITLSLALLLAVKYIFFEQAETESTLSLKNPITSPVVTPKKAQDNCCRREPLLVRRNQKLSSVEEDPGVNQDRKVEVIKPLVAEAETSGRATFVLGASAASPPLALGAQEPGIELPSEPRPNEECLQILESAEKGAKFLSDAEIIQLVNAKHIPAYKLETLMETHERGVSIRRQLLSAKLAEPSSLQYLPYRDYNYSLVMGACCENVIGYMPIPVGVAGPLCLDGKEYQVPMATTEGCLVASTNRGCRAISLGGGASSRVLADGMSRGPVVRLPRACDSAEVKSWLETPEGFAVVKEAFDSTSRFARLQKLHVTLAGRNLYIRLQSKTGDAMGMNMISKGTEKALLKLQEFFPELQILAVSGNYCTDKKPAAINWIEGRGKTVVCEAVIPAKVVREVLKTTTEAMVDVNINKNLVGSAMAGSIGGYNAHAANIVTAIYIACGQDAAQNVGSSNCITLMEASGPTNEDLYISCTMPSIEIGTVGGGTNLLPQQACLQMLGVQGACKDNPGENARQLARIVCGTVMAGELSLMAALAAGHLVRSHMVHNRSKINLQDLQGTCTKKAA
Assay: in vitro inhibition of rat liver microsomal HMGCoA reductase
Assay type: biochemical
Settings: 40 μM 14C-HMGCoA, 15 min at 37° C., pH7.2
Protocol: The IC50 is defined as the concentration required to inhibit the enzyme by 50% of control.
Triplicate samples are preincubated for 15 min. at 37° C. in a volume of 1 ml. […] Mevalonic acid is extracted with ether and the % ^14 C-HMGCoA incorporation determined for concurrent control and test reaction systems. Testing is done (first) with a range finding assay followed by a 4 or 5 point assay to find the IC50 value.

**Q.** How did the IC50 turn out when `CC[C@H](C)C(=O)O[C@H]1CCC=C2C=C[C@H](C)[C@H](CC[C@@H]3C[C@@H](O)CC(=O)O3)[C@H]21` [Compactin] was run?
**A.** The IC50 was 1 µM.
